Results on 35 compounds are retold here after US8557812B2, “Small molecule inhibitors of anti-apoptotic BCL-2 family members and the uses thereof” (The Regents of the University of Michigan, priority 2004, dated 2013).

Bcl-2, sequence (P10415 92-205 limits assumed): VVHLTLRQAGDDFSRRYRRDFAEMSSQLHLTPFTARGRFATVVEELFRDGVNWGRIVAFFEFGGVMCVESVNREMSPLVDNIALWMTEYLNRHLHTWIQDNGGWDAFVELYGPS

This experiment has as its target Bcl-2 (Homo sapiens, UniProt P10415). The experiment is described as follows: Fluorescence polarization in vitro Bcl-2 binding assay. On the procedure: Bcl-2 used in this assay is a recombinant His-fused soluble protein. […] Inc., Research Triangle Park, N.C.). […] The unlabeled Bid peptide is used as the positive control. The Ki values were calculated using our developed equation for FP assay (Nikolovska-Coleska et al., Anal. Biochem., 2004, in press). The program for calculating a Ki value is available free of charge via the Internet at http://sw16.im.med.umich.edu/software/calc_ki/.
(Polarisation of emitted light reports the rotation of a fluorescent probe.)
On to `O=C(Nc1ccc(S(=O)(=O)N2CCC(Nc3ccccc3-c3ccccc3)CC2)cc1)c1cc(S(=O)(=O)N2CCc3ccccc3C2)cc(O)c1O` [TW-173], for which the IC50 was above 1000 nM.
`CC(C)c1ccccc1Cc1cc(C(=O)Nc2cc(S(=O)(=O)c3ccc(Cl)cc3)ccc2Cl)c(O)c(O)c1O` [TW-35, N-[2-Chloro-5-(4-chloro-benzenesulfonyl)-phenyl]-2,3,4-trihydroxy-5-(2-isopropyl-benzyl)-benzamide]: the IC50 was above 1000 nM.
The compound `O=C(Nc1ccc(S(=O)(=O)c2ccccc2)cc1)c1cc(Cc2ccccc2)c(O)c(O)c1O` [TW-56, N-(Benzenesulfonyl-phenyl)-2,3,4-trihydroxy-5-benzyl-benzamide] had an IC50 above 1000 nM.
The compound `CC(C)(C)c1ccc(CCc2cc(O)c(O)c(C(=O)Nc3ccc(S(=O)(=O)N4CCC(Cc5ccccc5)CC4)cc3)c2)cc1` [TW-170] had an IC50 above 1000 nM.
Next, `CC(C)(C)c1ccccc1S(=O)(=O)c1ccc(NC(=O)c2cc(S(=O)(=O)NCCCc3ccccc3)cc(O)c2O)cc1` [TW-159]: at most 1000 nM; `CCc1cc(C(=O)Nc2cc(S(=O)(=O)c3ccc(Cl)cc3)ccc2Cl)c(O)c(O)c1O` [TW-45, N-[2-Chloro-5-(4-chloro-benzenesulfonyl)-phenyl]-2,3,4-trihydroxy-5-ethyl-benzamide]: at most 1000 nM; `CCCCCCCCCCc1ccc(-c2cc(C(C)C)c(O)c(O)c2O)cc1` [TW-5, 4′-Decyl-5-isopropyl-biphenyl-2,3,4-triol]: above 1000 nM.
`O=C(Nc1ccc(Oc2ccccc2)cc1)c1cc(CCc2ccccc2)c(O)c(O)c1O` [TW-20, N-(4-phenyloxy-phenyl)-2,3,4-trihydroxy-5-phenethyl-benzamide] had an IC50 above 1000 nM.
The compound `O=C(Nc1ccccc1)c1cc(S(=O)(=O)Nc2ccccc2)cc(O)c1O` [TW-162] gave an IC50 above 1000 nM.
For the compound `CC(C)c1cccc(NC(=O)c2cc(CCc3ccccc3)c(O)c(O)c2O)c1` [TW-24, N-(3-isopropyl-phenyl)-2,3,4-trihydroxy-5-phenethyl-benzamide], the IC50 was above 1000 nM.
As to `Oc1c(Cc2ccccc2)cc(-c2ccc(Cc3ccccc3)cc2)c(O)c1O` [TW-12, 5,4′-Dibenzyl-biphenyl-2,3,4-triol], the IC50 is above 1000 nM.
`CNC(=O)c1cc(Cc2ccccc2C(C)C)c(O)c(O)c1O` [TW-55, N-Methyl-2,3,4-trihydroxy-5-(2-isopropyl-benzyl)-benzamide]: the IC50 was above 1000 nM.
As to `O=C(Nc1cc(S(=O)(=O)c2ccc(Cl)cc2)ccc1Cl)c1cc(CCc2ccccc2)cc(O)c1O` [TW-34, N-[2-Chloro-5-(4-chloro-benzenesulfonyl)-phenyl]-2,3-dihydroxyl-phenethyl-benzamide], the IC50 is above 1000 nM.
Consider `CC(C)(C)c1ccc(Cc2cc(C(=O)Nc3cc(S(=O)(=O)c4ccc(Cl)cc4)ccc3Cl)c(O)c(O)c2O)cc1` [TW-39, N-[2-Chloro-5-(4-chloro-benzenesulfonyl)-phenyl]-2,3,4-trihydroxy-5-(4-tert-butyl-benzyl)-benzamide], for which the IC50 is above 1000 nM.
In turn, `CC(C)(C)c1ccccc1S(=O)(=O)c1ccc(NC(=O)c2cc(S(=O)(=O)NCCc3ccccc3)cc(O)c2O)cc1` [TW-161] registered an IC50 above 1000 nM.
Take `CC(C)(C)c1ccc(Cc2cc(C(=O)Nc3ccc(S(=O)(=O)c4ccccc4C(C)(C)C)cc3)c(O)c(O)c2O)cc1` [TW-41, N-[4-(2-tert-Butyl-benzenesulfonyl)-phenyl]-2,3,4-trihydroxy-5-(4-tert-butyl-benzyl)-benzamide]: the IC50 is above 1000 nM.
On to `CC(C)(C)c1ccc(CCc2cc(C(=O)Nc3cccc(S(=O)(=O)c4ccccc4)c3)c(O)c(O)c2O)cc1` [TW-22, N-(3-Benzenesulfonyl-phenyl)-5-[2-(4-tert-butyl-phenyl)-ethyl]-2,3,4-trihydroxy-benzamide], for which the IC50 is above 1000 nM.
As to `CCCCCCCCCCCc1ccc(-c2cc(CCCc3ccccc3)c(O)c(O)c2O)cc1` [TW-6, 5-(3-Phenyl-propyl)-4′-undecyl-biphenyl-2,3,4-triol], the half-maximal inhibitory concentration (IC50) is above 1000 nM.
On to `CC(C)(C)c1ccc(CCc2cc(C(=O)Nc3ccc(S(=O)(=O)c4ccccc4C(C)(C)C)cc3)c(O)c(O)c2O)cc1` [TW-38, N-[(2-tert-Butyl-benzenesulfonyl)-phenyl]-2,3,4-trihydroxy-5-(4-tert-butyl-phenethyl)-benzamide], for which the IC50 is at most 1000 nM.
For the compound `CC(C)c1ccccc1Cc1cc(C(=O)Nc2ccccc2Cl)c(O)c(O)c1O` [TW-53, N-(2-Chloro-phenyl)-2,3,4-trihydroxy-5-(2-iso-propyl-benzyl)-benzamide], the IC50 is above 1000 nM.
For `CC(C)(C)c1ccccc1S(=O)(=O)c1ccc(NC(=O)c2cc(S(=O)(=O)NCCCCc3ccccc3)cc(O)c2O)cc1` [TW-160], the IC50 is above 1000 nM.
With `CCCCCCCCCCCc1ccc(-c2cc(CCc3ccc(C(C)(C)C)cc3)c(O)c(O)c2O)cc1` [TW-7, 5-[2-(4-tert-Butyl-phenyl)-ethyl]-4′-unedcyl-biphenyl-2,3,4-triol] the figure was above 1000 nM.
With `Cc1ccccc1NC(=O)c1cc(CCc2ccccc2)c(O)c(O)c1O` [TW-28], the IC50 is above 1000 nM.
Consider `O=C(Nc1cc(S(=O)(=O)c2ccc(Cl)cc2)ccc1Cl)c1cc(Cc2ccccc2)c(O)c(O)c1O` [TW-17], for which the IC50 was above 1000 nM.
Turning to `CCCCCCCCCCCc1ccc(-c2cc(Cc3ccc(C(C)(C)C)cc3)c(O)c(O)c2O)cc1` [TW-8, 5-(4-Tertbutyl-benzyl)-4′-undecyl-biphenyl-2,3,4-triol], the 50% inhibitory concentration (IC50) is above 1000 nM.
`CCCCCCCCCCc1ccc(-c2cc(Cc3ccccc3)c(O)c(O)c2O)cc1` [TW-2, 5-Benzyl-4′-decyl-biphenyl-2,3,4-triol] gave an IC50 above 1000 nM.
`O=C(Nc1cccc(S(=O)(=O)c2ccccc2)c1)c1cc(CCc2ccccc2)c(O)c(O)c1O` [TW-21, N-(3-Benzenesulfonyl-phenyl)-2,3,4-trihydroxy-5-phenethyl-benzamide] displayed an IC50 above 1000 nM.
Next, `CCCCCCCCCCCc1ccc(-c2cc(Cc3ccc(C(C)C)cc3)c(O)c(O)c2O)cc1` [TW-9, 5-(4-Isopropyl-benzyl)-4′-undecyl-biphenyl-2,3,4-triol]: above 1000 nM; `CC(C)(C)c1ccccc1NC1CCN(S(=O)(=O)c2ccc(NC(=O)c3cc(S(=O)(=O)N4CCc5ccccc5C4)cc(O)c3O)cc2)CC1` [TW-174]: above 1000 nM; `CC(C)CCCc1cc(C(=O)Nc2cc(S(=O)(=O)c3ccc(Cl)cc3)ccc2Cl)c(O)c(O)c1O` [TW-47, N-[2-Chloro-5-(4-chloro-benzenesulfonyl)-phenyl]-2,3,4-trihydroxy-5-iso-hexyl-benzamide]: at most 1000 nM.
Next, `Oc1c(Cc2ccccc2)cc(-c2ccc(CCCCCc3ccccc3)cc2)c(O)c1O` [TW-1, 5-Benzyl-4′-(5-phenyl-pentyl)-biphenyl-2,3,4-triol]: above 1000 nM; `Oc1c(Cc2ccccc2)cc(-c2ccc(CCCc3ccccc3)cc2)c(O)c1O` [TW-11, 5-Benzyl-4′-(3-phenyl-propyl)-biphenyl-2,3,4-triol]: above 1000 nM.
As for `O=C1C(c2ccc(C(=O)N3CCC(Cc4ccccc4)CC3)cc2)=Cc2c1c(O)c(O)c(O)c2-c1ccc(-c2ccccc2)cc1` [TW-172], the IC50 was at most 1000 nM.
`O=C(Nc1ccc(Cl)c(Cl)c1)c1cc(CCc2ccccc2)c(O)c(O)c1O` [TW-27] yielded an IC50 above 1000 nM.
For `COc1ccc(S(=O)(=O)Nc2ccccc2C(C)C)cc1NC(=O)c1cc(S(=O)(=O)N2CCc3ccccc3C2)cc(O)c1O` [TW-165], the IC50 was at most 1000 nM.

The IC50 is the concentration at which inhibition is half-maximal. A low value points to greater potency in that assay.
